ChEMBL document CHEMBL5390253, “Discovery of Selective and Potent Macrocyclic CDK9 Inhibitors for the Treatment of Osimertinib-Resistant Non-Small-Cell Lung Cancer” (J Med Chem, 2023)
Values after ≈ are worked out from the molar mass of the structure shown. Active and inactive are the calls of the source. The calls are words filed in the database; no cut-off is given here.

Tests used:
[1] = Antitumor activity against patient derived #2862 lung cancer organoid assessed as inhibition of growth measured after 4 days; format: functional, tissue-based; conditions: Homo sapiens, 96 h
[2] = Toxicity in ICR mouse assessed as effect on body weight loss at 100 mg/kg, iv measured for 8 to 9 days; format: organism-based; conditions: in vivo, time 8-9 day
[3] = Toxicity in ICR mouse assessed as effect on physical appearance at 1000 mg/kg, po measured for 8 to 9 days; format: organism-based; conditions: in vivo, time 8-9 day
[4] = Induction of apoptosis in human Osimertinib-resistant NCI-H1975 cell assessed as necrotic cells at 2000 nM measured after 16 hrs by Annexin V-FITC and PI staining based analysis (reference value: 0.50%); format: functional
NCI-H1975 [5] = experiment: Downregulation of Bcl-2 level in human Osimertinib-resistant NCI-H1975 cell at 125 nM measured after 16 hrs in presence of osimertinib by Western blot analysis; format: functional, cell-based
[6] = target: Cyclin-Y/Cyclin-dependent kinase 16 (Homo sapiens) (UniProt Q00536+Q8ND76); experiment: Inhibition of CDK16/cyclin Y (unknown origin) at 200 nM preincubated for 10 mins followed by substrate addition and measured after 60 mins in presence of ATP by ADP-Glo reagent based assay relative to control; format: protein-complex assay; conditions: time 70.0 min
[7] = Toxicity in ICR mouse assessed as morphological changes in lung at 1000 mg/kg, po measured after 9 days by H and E staining based analysis; format: organism-based; conditions: in vivo, 216 h, time 9 day
[8] = target: Dual specificity protein kinase CLK2 (Homo sapiens) (UniProt P49760); experiment: Inhibition of CLK2 (unknown origin) at 100 nM preincubated for 10 mins followed by substrate addition and measured after 60 mins in presence of ATP by ADP-Glo reagent based assay relative to control; conditions: time 70.0 min
NCI-H1975 [9] = experiment: Inhibition of colony formation in human Osimertinib-resistant NCI-H1975 cell assessed as inhibition of cell growth at 125 to 2000 nM measured after 2 weeks by crystal violet staining based analysis; format: functional; conditions: dose 125-2000 nM
[10] = target: Cyclin-dependent kinase 1/cyclin B1 (Homo sapiens) (UniProt P06493+P14635); experiment: Inhibition of CDK1/Cyclin B1 (unknown origin) at 200 nM preincubated for 10 mins followed by substrate addition and measured after 60 mins in presence of ATP by ADP-Glo reagent based assay relative to control; format: protein-complex assay; conditions: time 70.0 min
[11] = Induction of apoptosis in human Osimertinib-resistant NCI-H1975 cell assessed as viable cells at 2000 nM measured after 16 hrs by Annexin V-FITC and PI staining based analysis (reference value: 94.9%); format: functional; conditions: read-out: Activity
NCI-H596 = experiment: Antiproliferative activity against human NCI-H596 cells incubated for 72 hrs by MTT assay; format: functional, cell-based; conditions: NCI-H596, 72 h
A549 = experiment: Antiproliferative activity against human A549 cells incubated for 72 hrs by MTT assay; format: functional, cell-based; conditions: A549, 72 h
[12] = Apparent volume of distribution in Sprague-Dawley rat at 2 mg/kg, iv measured upto 24 hrs; format: ADME, organism-based; conditions: in vivo, read-out: Vz
[13] = AUC in Sprague-Dawley rat at 2 mg/kg, iv measured upto 24 hrs; format: ADME, organism-based; design: dose 2 mg/kg, time < 24 hrs, route iv; conditions: in vivo
NCI-H1299 = experiment: Antiproliferative activity against human NCI-H1299 cells incubated for 72 hrs by MTT assay; format: functional, cell-based; conditions: NCI-H1299, 72 h
[14] = target: CDK12/Cyclin K (Homo sapiens) (UniProt O75909+Q9NYV4); experiment: Inhibition of CDK12/cyclin K (unknown origin) at 200 nM preincubated for 10 mins followed by substrate addition and measured after 60 mins in presence of ATP by ADP-Glo reagent based assay relative to control; format: protein-complex assay; conditions: time 70.0 min
[15] = Half life in Sprague-Dawley rat at 2 mg/kg, iv measured upto 24 hrs; format: ADME, organism-based; conditions: in vivo
[16] = target: Cyclin-dependent kinase 9 (Homo sapiens) (UniProt P50750); experiment: Inhibition of CDK9 in human Osimertinib-resistant NCI-H1975 cell assessed as suppression of p-RNAP II phosphorylation at Ser2 residue incubated for 8 hrs by Western blot analysis; format: cell-based; conditions: dose 0.05-1 µM
[17] = Toxicity in ICR mouse assessed as abnormalities in heart at 1000 mg/kg, po measured after 9 days by H and E staining based analysis; format: organism-based; conditions: in vivo, 216 h, time 9 day
[18] = target: CDK1/Cyclin E (Homo sapiens) (UniProt P06493+P24864); experiment: Inhibition of CDK1/Cyclin E1 (unknown origin) at 200 nM preincubated for 10 mins followed by substrate addition and measured after 60 mins in presence of ATP by ADP-Glo reagent based assay relative to control; format: protein-complex assay; conditions: time 70.0 min
[19] = target: Cyclin-C/Cyclin-dependent kinase 19 (Homo sapiens) (UniProt Q9BWU1+P24863); experiment: Inhibition of CDK19/cyclin C (unknown origin) at 200 nM preincubated for 10 mins followed by substrate addition and measured after 60 mins in presence of ATP by ADP-Glo reagent based assay relative to control; format: protein-complex assay; conditions: time 70.0 min
[20] = Antitumor activity against patient derived #0085 lung cancer organoid assessed as inhibition of growth measured after 4 days; format: functional, tissue-based; conditions: Homo sapiens, 96 h
NCI-H1975 [21] = experiment: Downregulation of Mcl-1 level in human Osimertinib-resistant NCI-H1975 cell at 500 nM measured after 8 hrs by Western blotting analysis; format: functional, cell-based
[22] = target: Homeodomain-interacting protein kinase 1 (Homo sapiens) (UniProt Q86Z02); experiment: Inhibition of HIPK1 (unknown origin) at 500 nM preincubated for 10 mins followed by substrate addition and measured after 60 mins in presence of ATP by ADP-Glo reagent based assay relative to control; conditions: time 70.0 min
[23] = Solubility of the compound in water at pH 7.4 by shake flask method; format: physicochemical
CYP3A4 = CYP3A4 (Homo sapiens, UniProt P08684); experiment: Inhibition of CYP3A4 in human liver microsomes using midazolam as substrate at 10 uM incubated for 5 mins in presence of NADPH by LC-MS/MS analysis relative to control; format: ADME, Microsome; conditions: probe midazolam
[24] = Oral bioavailability in Sprague-Dawley rat at 20 mg/kg measured upto 24 hrs; format: ADME, organism-based; conditions: in vivo
[25] = target: CDK9/cyclin T1 (Homo sapiens) (UniProt O60563+P50750); experiment: Inhibition of CDK9/cyclin T1 (unknown origin) at 200 nM preincubated for 10 mins followed by substrate addition and measured after 60 mins in presence of ATP by ADP-Glo reagent based assay relative to control; format: protein-complex assay; conditions: time 70.0 min
[26] = Induction of apoptosis in human Osimertinib-resistant NCI-H1975 cell assessed as viable cells at 125 nM measured after 16 hrs in presence of osimertinib by Annexin V-FITC and PI staining based analysis (reference value: 94.9%); format: functional; conditions: read-out: Activity
[27] = target: Tyrosine-protein kinase JAK2 (Homo sapiens) (UniProt O60674); experiment: Inhibition of JAK2 (unknown origin) at 100 nM preincubated for 10 mins followed by substrate addition and measured after 60 mins in presence of ATP by ADP-Glo reagent based assay relative to control; conditions: time 70.0 min
[28] = Antitumor activity against patient derived #2422 lung cancer organoid assessed as inhibition of growth measured after 4 days; format: functional, tissue-based; conditions: Homo sapiens, 96 h
[29] = Toxicity in ICR mouse assessed as abnormalities in liver at 1000 mg/kg, po measured after 9 days by H and E staining based analysis; format: organism-based; conditions: in vivo, 216 h, time 9 day

Sequence of CDK1/Cyclin E (Homo sapiens) (P06493 whole entry, looked up): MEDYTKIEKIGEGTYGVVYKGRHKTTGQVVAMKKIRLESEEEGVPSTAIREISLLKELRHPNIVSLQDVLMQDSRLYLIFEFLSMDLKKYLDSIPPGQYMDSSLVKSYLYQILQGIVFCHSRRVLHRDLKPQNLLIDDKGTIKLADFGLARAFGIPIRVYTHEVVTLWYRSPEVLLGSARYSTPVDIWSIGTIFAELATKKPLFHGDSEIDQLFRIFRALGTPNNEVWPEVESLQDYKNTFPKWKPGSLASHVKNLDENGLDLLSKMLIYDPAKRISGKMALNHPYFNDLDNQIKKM
Sequence of CDK1/Cyclin E (Homo sapiens) (P24864 whole entry, looked up): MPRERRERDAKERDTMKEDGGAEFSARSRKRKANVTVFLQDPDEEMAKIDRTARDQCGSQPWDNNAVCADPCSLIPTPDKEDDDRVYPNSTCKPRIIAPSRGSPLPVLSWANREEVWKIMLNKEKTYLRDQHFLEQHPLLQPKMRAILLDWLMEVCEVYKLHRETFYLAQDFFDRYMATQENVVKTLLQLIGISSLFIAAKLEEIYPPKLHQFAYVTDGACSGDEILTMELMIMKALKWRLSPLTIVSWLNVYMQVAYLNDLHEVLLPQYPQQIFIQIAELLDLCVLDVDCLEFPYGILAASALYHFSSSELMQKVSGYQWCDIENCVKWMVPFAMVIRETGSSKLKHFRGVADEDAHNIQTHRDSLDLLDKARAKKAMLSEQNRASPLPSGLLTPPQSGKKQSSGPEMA
Sequence of Cyclin-dependent kinase 1/cyclin B1 (Homo sapiens) (P06493 whole entry, looked up): as the sequence (P06493 whole entry, looked up) above
Sequence of Cyclin-dependent kinase 1/cyclin B1 (Homo sapiens) (P14635 whole entry, looked up): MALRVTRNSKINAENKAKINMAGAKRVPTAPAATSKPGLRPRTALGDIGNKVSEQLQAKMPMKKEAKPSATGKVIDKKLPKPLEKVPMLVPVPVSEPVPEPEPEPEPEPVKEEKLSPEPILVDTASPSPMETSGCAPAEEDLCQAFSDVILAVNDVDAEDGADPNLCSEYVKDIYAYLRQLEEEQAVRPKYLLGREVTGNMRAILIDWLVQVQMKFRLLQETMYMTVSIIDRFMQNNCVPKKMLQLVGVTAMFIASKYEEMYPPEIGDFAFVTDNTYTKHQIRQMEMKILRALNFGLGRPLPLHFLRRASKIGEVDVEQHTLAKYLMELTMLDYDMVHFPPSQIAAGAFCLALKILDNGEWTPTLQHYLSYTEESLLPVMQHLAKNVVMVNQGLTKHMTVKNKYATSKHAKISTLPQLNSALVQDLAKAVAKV
Sequence of Tyrosine-protein kinase JAK2 (Homo sapiens) (O60674 whole entry): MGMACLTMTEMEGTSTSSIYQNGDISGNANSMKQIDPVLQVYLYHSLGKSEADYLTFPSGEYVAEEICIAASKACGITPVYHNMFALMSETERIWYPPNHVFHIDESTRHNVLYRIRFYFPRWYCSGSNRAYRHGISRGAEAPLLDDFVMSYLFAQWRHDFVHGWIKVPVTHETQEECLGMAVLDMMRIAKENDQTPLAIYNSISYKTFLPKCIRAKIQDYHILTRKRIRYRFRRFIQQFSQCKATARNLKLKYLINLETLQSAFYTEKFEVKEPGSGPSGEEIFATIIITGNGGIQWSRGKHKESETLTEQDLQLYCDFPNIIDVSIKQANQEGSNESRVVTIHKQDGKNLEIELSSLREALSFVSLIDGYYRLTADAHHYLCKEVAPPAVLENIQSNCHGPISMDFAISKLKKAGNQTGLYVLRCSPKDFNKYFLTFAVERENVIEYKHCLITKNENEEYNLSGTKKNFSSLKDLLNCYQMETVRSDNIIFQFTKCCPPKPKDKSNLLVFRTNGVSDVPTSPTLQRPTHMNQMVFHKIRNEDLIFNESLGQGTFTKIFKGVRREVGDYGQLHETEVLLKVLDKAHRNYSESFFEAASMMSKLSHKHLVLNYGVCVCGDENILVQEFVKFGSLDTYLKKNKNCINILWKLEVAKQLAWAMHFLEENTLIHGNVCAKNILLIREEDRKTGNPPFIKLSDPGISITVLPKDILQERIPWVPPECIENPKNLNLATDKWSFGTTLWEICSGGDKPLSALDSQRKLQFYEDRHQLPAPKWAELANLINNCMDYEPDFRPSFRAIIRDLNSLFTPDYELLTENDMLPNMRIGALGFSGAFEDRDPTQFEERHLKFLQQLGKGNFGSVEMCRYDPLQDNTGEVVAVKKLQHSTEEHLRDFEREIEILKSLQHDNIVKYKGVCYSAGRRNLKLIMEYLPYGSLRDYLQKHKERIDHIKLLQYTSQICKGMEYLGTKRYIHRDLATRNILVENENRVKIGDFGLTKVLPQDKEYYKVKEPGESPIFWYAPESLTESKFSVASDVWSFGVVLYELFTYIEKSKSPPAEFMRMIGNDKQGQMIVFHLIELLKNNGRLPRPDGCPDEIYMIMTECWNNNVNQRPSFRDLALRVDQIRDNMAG
Sequence of CYP3A4 (P08684 whole entry): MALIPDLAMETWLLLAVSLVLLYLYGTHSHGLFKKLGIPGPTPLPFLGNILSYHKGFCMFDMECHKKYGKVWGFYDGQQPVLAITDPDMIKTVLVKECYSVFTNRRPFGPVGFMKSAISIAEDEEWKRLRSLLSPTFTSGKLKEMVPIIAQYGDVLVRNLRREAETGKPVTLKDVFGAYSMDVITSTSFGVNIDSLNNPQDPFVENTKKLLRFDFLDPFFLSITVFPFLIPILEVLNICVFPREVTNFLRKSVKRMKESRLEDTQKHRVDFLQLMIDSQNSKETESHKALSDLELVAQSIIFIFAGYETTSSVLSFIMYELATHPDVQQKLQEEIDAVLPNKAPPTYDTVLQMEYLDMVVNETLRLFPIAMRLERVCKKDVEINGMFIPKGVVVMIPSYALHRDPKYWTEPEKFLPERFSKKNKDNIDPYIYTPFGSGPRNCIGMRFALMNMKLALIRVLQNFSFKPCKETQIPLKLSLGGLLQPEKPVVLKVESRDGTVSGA
Sequence of Cyclin-dependent kinase 9 (Homo sapiens) (P50750 whole entry): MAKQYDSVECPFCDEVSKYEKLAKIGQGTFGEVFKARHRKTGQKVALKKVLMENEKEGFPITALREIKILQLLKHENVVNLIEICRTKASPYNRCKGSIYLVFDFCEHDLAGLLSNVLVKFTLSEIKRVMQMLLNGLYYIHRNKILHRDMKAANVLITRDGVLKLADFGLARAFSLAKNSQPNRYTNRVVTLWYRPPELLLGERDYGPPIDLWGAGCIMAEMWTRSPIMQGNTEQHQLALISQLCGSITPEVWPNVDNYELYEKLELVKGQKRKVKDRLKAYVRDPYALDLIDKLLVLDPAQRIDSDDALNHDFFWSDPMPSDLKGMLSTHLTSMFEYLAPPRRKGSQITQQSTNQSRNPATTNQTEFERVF
Sequence of Dual specificity protein kinase CLK2 (Homo sapiens) (P49760 whole entry, looked up): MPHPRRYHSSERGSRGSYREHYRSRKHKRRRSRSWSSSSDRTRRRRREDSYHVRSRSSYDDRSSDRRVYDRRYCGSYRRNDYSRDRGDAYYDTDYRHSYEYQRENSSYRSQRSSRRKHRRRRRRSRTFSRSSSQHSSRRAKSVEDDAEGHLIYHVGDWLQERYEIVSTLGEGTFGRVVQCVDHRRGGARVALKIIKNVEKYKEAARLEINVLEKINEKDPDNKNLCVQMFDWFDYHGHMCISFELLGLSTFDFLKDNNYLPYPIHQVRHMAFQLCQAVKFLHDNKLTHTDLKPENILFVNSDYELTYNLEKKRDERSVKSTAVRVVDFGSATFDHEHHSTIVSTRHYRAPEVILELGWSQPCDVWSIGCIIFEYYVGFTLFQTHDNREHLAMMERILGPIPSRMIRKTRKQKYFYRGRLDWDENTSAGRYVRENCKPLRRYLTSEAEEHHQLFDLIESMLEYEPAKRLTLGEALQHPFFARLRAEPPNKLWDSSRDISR

SMILES: O=C(NCCN1CCOCC1)c1ccc2cc1OCCCCCCOc1cc(ccc1F)-c1nc(ncc1F)N2
- IC50 [1]: 940 nM
- Activity [2]: Non-Toxic
- Activity [3]: Non-Toxic
- Activity [4]: 1.97%
- Activity (NCI-H1975 [5]): Active
- inhibition [6]: 25.9%
- Activity [7]: Non-Toxic
- inhibition [8]: 32.8%
- inhibition (NCI-H1975 [9]): Active
- inhibition [10]: 33%
- viability at 2 µM [11]: 65.5%
- IC50 (NCI-H596): 332 nM
- IC50 (A549): 409 nM
- Vd [12]: 12 L/kg
- AUC at 24 h [13]: 1080 ng·h/mL
- IC50 (NCI-H1299): 85 nM
- inhibition [14]: 56.4%
- half-life [15]: 108 min
- inhibition [16]: Dose-Dependent Effect
- Activity [17]: Non-Toxic
- inhibition [18]: 16.4%
- inhibition [19]: 11.5%
- IC50 [20]: 130 nM
- Activity (NCI-H1975 [21]): Active
- inhibition [22]: 96%
- solubility thermodynamic [23]: 626 µg/mL (≈ 1130 µM)
- inhibition at 5 min, 10 µM (CYP3A4): 27.5%
- bioavailability [24]: 8%
- inhibition [25]: 99.3%
- viability at 0.125 µM [26]: 78.3%
- inhibition [27]: 23.3%
- IC50 [28]: < 80 nM
- Activity [29]: Non-Toxic
